Key:
4T1-luc cells = assay: Growth of 4T1-luc cells in the mammary fat pad of Balb-c mice; format: in vivo, mouse; details: 2DG once a day i.p. combined with 4 cycles of FMD
SUM159 tumour masses = assay: Ex vivo mammosphere forming assay on SUM159 tumour masses; format: cell-based, human
[1] = test system: 4T1 tumour masses (CD44highCD24low subpopulation); assay: CD44CD24 flow cytometry of 4T1 tumour masses; format: in vivo, mouse; details: 2DG combined with FMD
Experimental: Cells were harvested and washed in PBS 1% BSA and pellets were resuspended in blocking buffer (PBS 10% BSA) and incubated for 30 min at 4° C. light protected. After a wash in PBS 1% BSA, cells were incubated with antibodies solution (200 μl/1×10^6 cells) for 45 min at 4° C. […] SUM159 samples were analysed by flow cytometry with Attune NxT flow cytometer and data were processed by Kaluza analysis software (Beckman coulter, version 2.0). 4T1 samples were analysed by flow cytometry with FACSCalibur (BD) and data were processed by FlowJo software.

SUM159 xenografts = assay: Growth of SUM159 xenografts in NOD scid gamma (NSG) mice; details: agent combined with FMD cycles, compared with FMD or drug alone
[2] = test system: SUM159 tumour cells derived from in vivo xenografts; assay: Limiting dilution assay in recipient NSG mice; set-up: species or system human
4T1 cells = assay: In vitro sphere forming assay, 4T1 cells under CTR/STS; format: cell-based, mouse; details: STS (0.5 g/l glucose, 1% FBS), 48 h; agent added (8-Br-cAMP; glucose 1 g/l)
[3] = tumour masses from mice treated with agent combined with FMD cycles
[4] = tumour masses from mice treated with drug under AL diet

| SMILES | tumor progression (4T1-luc cells) | number of ex vivo mammospheres (sphere formation) (SUM159 tumour masses; [3]) | number of ex vivo mammospheres (sphere formation) (SUM159 tumour masses; [4]) | CSCs (CD44 and CD24 expression) [1] | tumor progression / anti-tumor activity (SUM159 xenografts) | time tumor formation was prevented ([2]; donor mice 2DG + FMD, 1,000 cells dilution level) | mouse survival in the limiting dilution assay ([2]; donor mice treated with 2DG + FMD) | in vitro sphere formation (4T1 cells) |
| --- | --- | --- | --- | --- | --- | --- | --- | --- |
| O=CC[C@@H](O)[C@H](O)[C@H](O)CO [2DG, 2-Deoxy-D-Glucose] | potentiated the effect of FMD both in delaying tumor progression | decreasing the number of mammospheres derived by tumor masses, even after a multiple serial propagation | did not have any effect under AL conditions | reducing CSCs | potentiated the effect of FMD both in delaying tumor progression | more than 150 days | potentiated the effect of FMD in increasing mouse survival compared to 2DG and FMD alone |  |
| Nc1ncnc2c1nc(Br)n2[C@@H]1O[C@@H]2COP(=O)(O)O[C@H]2[C@H]1O [8-Br-cAMP, 8-Bromoadenosine 3′,5′-cyclic mono-phosphate] |  |  |  |  |  |  |  | reversed fasting/STS-dependent spheres reduction |
| O=C(Oc1cccc(F)c1OC(=O)c1cccc(O)c1)c1cccc(O)c1 [WZB117] |  |  | mimicked the effect of FMD on reducing the number of spheres formation |  | did not potentiate the anti-tumor activity of FMD |  |  |  |
| OC[C@H]1OC(O)[C@H](O)[C@@H](O)[C@@H]1O (stereo partly drawn) [glucose] |  | completely rescued the FMD-dependent reduction of mammospheres |  |  | partially reversed the FMD effects on tumor progression |  |  | reversed the STS effect on 4T1 sphere formation |
| CN(C)C(=N)N=C(N)N [metformin] |  |  | reduced tumor growth and sphere formation |  | did not show any additive or synergistic antitumor effect when combined with the FMD |  |  |  |

From US20220313694A1, “REDUCED CALORIC INTAKE AND ANTICANCER AGENTS FOR THE TREATMENT OF CANCER” (IFOM FONDAZIONE ISTITUTO FIRC DI ONCOLOGIA MOLECOLARE, priority 2021, published 2022)
